Reference: paper PMC3293629 (Nature Communications, 2012)
Like-named read-outs stand apart in the source and are kept apart here.

Assays:
[1] = test system: HA1.7, F11 and HA-C6 TCRs; experiment: SPR equilibrium binding of HA1.7, F11 and HA-C6 TCRs, combined; set-up: species or system human; conditions: Arg at P10 or P11
[2] = test system: Flu1-specific clone HA1.7; experiment: IFN-γ ELISpot, other Flu1-specific clones; assay type: cell-based, human; conditions: Fig. 1c, peptide titration, compared with Flu1
[3] = test system: TRB clonotypes of tetramer-sorted CD4^+ T cells; assay type: cell-based, human
[4] = test system: CD4^+ T cells binding the HLA-DR1/HA305−320 tetramer; assay type: cell-based, human
[5] = test system: CD4^+ HLA-DR1/HA305−320 tetramer-positive cells; assay type: cell-based, human

Row | Sequence | increase in TCR binding affinity [1] [fold] | responsiveness to altered peptides, other clones (in words) [2] | Freq. of clonotype ([3]; TRBV 5–6, CDR3 […], TRBJ 1–2) [%] | Freq. of clonotype ([3]; TRBV 12–3/4, CDR3 […], TRBJ 1–5) [%] | clonotypic composition, repeat experiment versus first (in words) ([3]; same donor, Chi square 0.72, P=0.70, data not shown) | tetramer-positive expansion, % of CD3^+ T cells ([4]; short-term T-cell line primed with peptide, HLA-DR1/HA305−320 tetramer) | number of expanded CD4^+ HLA-DR1/HA305−320 tetramer-positive cells [5] | clonotypic composition, repeat experiment versus first (in words) [3] | tetramer-positive expansion, % of CD3^+ T cells [4]
1 | PKYVKQNTLKLAR [Flu3] | > 2 | striking increase in responsiveness | 69.70 | 30.30 | no significant difference | 28.7 % of CD3^+ T cells |  |  | 
2 | PKYVKQNTLKLAT [Flu1, reference compound] |  |  |  |  |  |  | ≥ 5×10^4 cells | no significant difference | 19.4 % of CD3^+ T cells
